Source: PubChem BioAssay AID2060904 (Molecular Pharmacology Branch, DTP, NCI, 2025)

Test system: 349418-098-R-PDC complex spheroid viability
Test: Anticancer human tumor 349418-098-R-PDC patient-derived lung adenocarcinoma cell line growth inhibition [RAS]
Conditions: for IC50: curve of first compound; for viability, T/C: stronger effect = lower value
Procedure, shortened: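 Tumour cells grown as complex spheroids with HUVEC endothelial cells and mesenchymal stem cells, treated with RAS pathway inhibitor combinations. Each agent spans half-log steps from near clinical Cmax, or 10 microM where Cmax is unknown.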

[1] = second compound 0.000949 µM, first compound 0.0316 µM
[2] = second compound 0.000949 µM, first compound 0.1 µM
[3] = second compound 0.000949 µM, first compound 0.316 µM
[4] = second compound 0.000949 µM, first compound 1 µM
[5] = second compound 0.000949 µM, first compound 3.16 µM
[6] = second compound 0.000949 µM, first compound 10 µM
[7] = second compound 0.003 µM, first compound 0.0316 µM
[8] = second compound 0.003 µM, first compound 0.1 µM
[9] = second compound 0.003 µM, first compound 0.316 µM
[10] = second compound 0.003 µM, first compound 1 µM
[11] = second compound 0.003 µM, first compound 3.16 µM
[12] = second compound 0.003 µM, first compound 10 µM
[13] = second compound 0.00949 µM, first compound 0.0316 µM
[14] = second compound 0.00949 µM, first compound 0.1 µM
[15] = second compound 0.00949 µM, first compound 0.316 µM
[16] = second compound 0.00949 µM, first compound 1 µM
[17] = second compound 0.00949 µM, first compound 3.16 µM
[18] = second compound 0.00949 µM, first compound 10 µM
[19] = second compound 0.03 µM, first compound 0.0316 µM
[20] = second compound 0.03 µM, first compound 0.1 µM
[21] = second compound 0.03 µM, first compound 0.316 µM
[22] = second compound 0.03 µM, first compound 1 µM
[23] = second compound 0.03 µM, first compound 3.16 µM
[24] = second compound 0.03 µM, first compound 10 µM
[25] = second compound 0.0949 µM, first compound 0.0316 µM
[26] = second compound 0.0949 µM, first compound 0.1 µM
[27] = second compound 0.0949 µM, first compound 0.316 µM
[28] = second compound 0.0949 µM, first compound 1 µM
[29] = second compound 0.0949 µM, first compound 3.16 µM
[30] = second compound 0.0949 µM, first compound 10 µM
[31] = second compound 0.3 µM, first compound 0.0316 µM
[32] = second compound 0.3 µM, first compound 0.1 µM
[33] = second compound 0.3 µM, first compound 0.316 µM
[34] = second compound 0.3 µM, first compound 1 µM
[35] = second compound 0.3 µM, first compound 3.16 µM
[36] = second compound 0.3 µM, first compound 10 µM
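Note: spheroids exposed to compound for seven days before viability readout.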

Compound `CC(=O)OC12COC1CC(O)C1(C)C(=O)C(O)C3=C(C)C(OC(=O)C(O)C(NC(=O)OC(C)(C)C)c4ccccc4)CC(O)(C(OC(=O)c4ccccc4)C21)C3(C)C` (stereo unspecified) + CCn1c(-c2cccnc2C(C)OC)c2c3cc(ccc31)N1CCOC(CC(NC(=O)C(C(C)C)N(C)C(=O)C3(F)CCN(C(=O)C#CC(C)(C)N(C)C)CC3)C(=O)N3CCCC(N3)C(=O)OCC(C)(C)C2)C1 has an IC50 (second compound 0.000949 µM) of under 31.6 nM, an IC50 (second compound 0.003 µM) of under 31.6 nM and an IC50 (second compound 0.00949 µM) of under 31.6 nM. The IC50 (second compound 0.03 µM) was under 31.6 nM, the IC50 (second compound 0.0949 µM) was under 31.6 nM and the IC50 (second compound 0.3 µM) was under 31.6 nM. For the same compound, the viability, T/C [1] was 13.4%, the viability, T/C [2] was 13% and the viability, T/C [3] was 15.4%. For the same compound, the viability, T/C [4] was 16.4%, the viability, T/C [5] was 15.6% and the viability, T/C [6] was 17.3%. The viability, T/C [7] was 13.8%, the viability, T/C [8] was 13.9% and the viability, T/C [9] was 10.9%. It also gave a viability, T/C [10] of 13.8%, a viability, T/C [11] of 16.8% and a viability, T/C [12] of 16.9%. For the same compound, the viability, T/C [13] was 13.2%, the viability, T/C [14] was 13.6% and the viability, T/C [15] was 10.2%. The viability, T/C [16] was 13.5%, the viability, T/C [17] was 17.4% and the viability, T/C [18] was 15.9%. The viability, T/C [19] was 12.6%, the viability, T/C [20] was 13.3% and the viability, T/C [21] was 16.2%. The viability, T/C [22] was 16.2%, the viability, T/C [23] was 17.4% and the viability, T/C [24] was 12.6%. The viability, T/C [25] was 12.2%, the viability, T/C [26] was 13.3% and the viability, T/C [27] was 15.7%. It also gave a viability, T/C [28] of 15.9%, a viability, T/C [29] of 16.9% and a viability, T/C [30] of 16.8%. The viability, T/C [31] was 13%, the viability, T/C [32] was 13.2% and the viability, T/C [33] was 14.7%. The viability, T/C [34] was 15%, the viability, T/C [35] was 19.1% and the viability, T/C [36] was 21.1%.
Work on `NC1c2ccccc2OC12CCN(c1cnc3c(N4CCCc5ncccc54)n[nH]c3n1)CC2` (stereo unspecified) + CCn1c(-c2cccnc2C(C)OC)c2c3cc(ccc31)N1CCOC(CC(NC(=O)C(C(C)C)N(C)C(=O)C3(F)CCN(C(=O)C#CC(C)(C)N(C)C)CC3)C(=O)N3CCCC(N3)C(=O)OCC(C)(C)C2)C1 yielded an IC50 (second compound 0.000949 µM) of over 10000 nM, an IC50 (second compound 0.003 µM) of over 10000 nM and an IC50 (second compound 0.00949 µM) of over 10000 nM. It also gave an IC50 (second compound 0.03 µM) of over 10000 nM, an IC50 (second compound 0.0949 µM) of over 10000 nM and an IC50 (second compound 0.3 µM) of over 10000 nM. The viability, T/C [1] was 78.4%, the viability, T/C [2] was 93.4% and the viability, T/C [3] was 90.7%. The viability, T/C [4] was 97%, the viability, T/C [5] was 108% and the viability, T/C [6] was 75.5%. For the same compound, the viability, T/C [7] was 97.2%, the viability, T/C [8] was 95.3% and the viability, T/C [9] was 91%. For the same compound, the viability, T/C [10] was 99.4%, the viability, T/C [11] was 98.5% and the viability, T/C [12] was 71.7%. The viability, T/C [13] was 108%, the viability, T/C [14] was 95.4% and the viability, T/C [15] was 90.3%. For the same compound, the viability, T/C [16] was 116%, the viability, T/C [17] was 93.6% and the viability, T/C [18] was 59.8%. The viability, T/C [19] was 93.9%, the viability, T/C [20] was 102% and the viability, T/C [21] was 115%. The viability, T/C [22] was 96.8%, the viability, T/C [23] was 98.1% and the viability, T/C [24] was 85%. The viability, T/C [25] was 105%, the viability, T/C [26] was 103% and the viability, T/C [27] was 116%. The viability, T/C [28] was 91.3%, the viability, T/C [29] was 89.7% and the viability, T/C [30] was 59.3%. For the same compound, the viability, T/C [31] was 84.8%, the viability, T/C [32] was 68.8% and the viability, T/C [33] was 102%. For the same compound, the viability, T/C [34] was 90.8%, the viability, T/C [35] was 85.2% and the viability, T/C [36] was 61.4%.
In the case of `Nc1ccn(C2OC(CO)C(O)C2(F)F)c(=O)n1` (stereo unspecified) + CCn1c(-c2cccnc2C(C)OC)c2c3cc(ccc31)N1CCOC(CC(NC(=O)C(C(C)C)N(C)C(=O)C3(F)CCN(C(=O)C#CC(C)(C)N(C)C)CC3)C(=O)N3CCCC(N3)C(=O)OCC(C)(C)C2)C1, the IC50 (second compound 0.000949 µM) is reported as under 3.16 nM, the IC50 (second compound 0.003 µM) is reported as under 3.16 nM and the IC50 (second compound 0.00949 µM) is reported as under 3.16 nM. For the same compound, the IC50 (second compound 0.03 µM) was under 3.16 nM, the IC50 (second compound 0.0949 µM) was under 3.16 nM and the IC50 (second compound 0.3 µM) was under 3.16 nM. It also gave a viability, T/C (second compound 0.000949 µM, first compound 0.00316 µM) of 23.6%, a viability, T/C (second compound 0.000949 µM, first compound 0.01 µM) of 7.06% and a viability, T/C [1] of 5.46%. It also gave a viability, T/C [2] of 4.18%, a viability, T/C [3] of 4.47% and a viability, T/C [4] of 3.97%. For the same compound, the viability, T/C (second compound 0.003 µM, first compound 0.00316 µM) was 22%, the viability, T/C (second compound 0.003 µM, first compound 0.01 µM) was 6.17% and the viability, T/C [7] was 5.46%. For the same compound, the viability, T/C [8] was 5.26%, the viability, T/C [9] was 4.96% and the viability, T/C [10] was 4.2%. For the same compound, the viability, T/C (second compound 0.00949 µM, first compound 0.00316 µM) was 20.5%, the viability, T/C (second compound 0.00949 µM, first compound 0.01 µM) was 8.01% and the viability, T/C [13] was 5.62%. For the same compound, the viability, T/C [14] was 4.89%, the viability, T/C [15] was 6.38% and the viability, T/C [16] was 3.73%. The viability, T/C (second compound 0.03 µM, first compound 0.00316 µM) was 19.7%, the viability, T/C (second compound 0.03 µM, first compound 0.01 µM) was 6.08% and the viability, T/C [19] was 4.75%. It also gave a viability, T/C [20] of 5.13%, a viability, T/C [21] of 5.14% and a viability, T/C [22] of 3.58%. The viability, T/C (second compound 0.0949 µM, first compound 0.00316 µM) was 19.9%, the viability, T/C (second compound 0.0949 µM, first compound 0.01 µM) was 7.64% and the viability, T/C [25] was 4.68%. It also gave a viability, T/C [26] of 4.96%, a viability, T/C [27] of 5.01% and a viability, T/C [28] of 4.01%. The viability, T/C (second compound 0.3 µM, first compound 0.00316 µM) was 16.6%, the viability, T/C (second compound 0.3 µM, first compound 0.01 µM) was 6.52% and the viability, T/C [31] was 4.44%. It also gave a viability, T/C [32] of 4.51%, a viability, T/C [33] of 5.17% and a viability, T/C [34] of 3.99%.
